# Results from PMC5483439, “The Effect of Pungent and Tingling Compounds from Piper nigrum L. on Background K^+ Currents” (Frontiers in Pharmacology, 2017).
# Key:
# mouse trigeminal neurons = assay: Calcium imaging on primary cultured mouse trigeminal neurons; type: cell-based
# Protocol: Trigeminal ganglia neurons were isolated from Swiss CD-1 mice (Charles River Laboratories, Sulzfeld, Germany). All experiments involving animals were carried out in accordance with the European Union Community Council’s guidelines and approved by the competent state office of the Federal Land of Northrhine Westphalia (file number 87-51.04.2010.A180). At postnatal day 2–5, the mice were sacrificed by decapitation. The brain was removed, and both trigeminal ganglia were excised. The ganglia were washed in PBS+/+ (Invitrogen, Karlsruhe, Germany) and collected in Leibovitz Medium (L15, Invitrogen) on ice. The ganglia were transferred to Dulbecco’s modified essential medium (DMEM) containing 0.025% collagenase (type IA, Sigma–Aldrich). The minced ganglia were incubated for 45 min in a humidified atmosphere (37°C, 95% humidity, 6% CO2) before trituration. The cell suspension was centrifuged at 1000 rpm for 4 min at room temperature and the pellet was resuspended in F-12 medium (Invitrogen; 31331-D-MEM/F-12, GlutaMax^TM) supplemented with 10% fetal bovine serum (FBS^TM; Invitrogen), 200 U/mL penicillin and 200 U/mL streptomycin. The cell suspension (50 μL) was then plated on poly L-lysine (0.01%) coated glass coverslips (30 mm, Sarstedt, Nümbrecht, Germany), placed in cell culture dishes (35 mm) and kept in a humidified atmosphere (37°C, 95% humidity, 6% CO2) for 1 h. Subsequently, F-12 medium (2 mL) supplemented with FBS (10%), 200 U/mL penicillin and 200 U/mL streptomycin was added to each dish. The cells were kept in an incubator (37°C, 95% humidity, 6% CO2) until use. The trigeminal ganglion neurons were incubated with the Ca^2+-sensitive reporter dye Fura-2/AM (Invitrogen, final concentration: 3 μM) 30–45 min before starting the experiment. […] The emitted light (510 nm) was detected with a 12-bit 1376 × 1032-pixel charge-coupled device camera (F-View II, Olympus), and Cell® imaging software (Olympus). The changes in intracellular calcium levels were calculated as the intensity ratio of f340/f380 [(E(510) at 340 nm illumination)/(E(510) at 380 nm illumination)]. […]
# [1] = tested on: background current of mouse trigeminal neurons; assay: Whole-cell patch clamp on cultured mouse trigeminal neurons; type: cell-based; details: 100 μM
# Protocol: Trigeminal ganglia neurons were isolated from Swiss CD-1 mice (Charles River Laboratories, Sulzfeld, Germany). All experiments involving animals were carried out in accordance with the European Union Community Council’s guidelines and approved by the competent state office of the Federal Land of Northrhine Westphalia (file number 87-51.04.2010.A180). At postnatal day 2–5, the mice were sacrificed by decapitation. The brain was removed, and both trigeminal ganglia were excised. The ganglia were washed in PBS+/+ (Invitrogen, Karlsruhe, Germany) and collected in Leibovitz Medium (L15, Invitrogen) on ice. The ganglia were transferred to Dulbecco’s modified essential medium (DMEM) containing 0.025% collagenase (type IA, Sigma–Aldrich). The minced ganglia were incubated for 45 min in a humidified atmosphere (37°C, 95% humidity, 6% CO2) before trituration. The cell suspension was centrifuged at 1000 rpm for 4 min at room temperature and the pellet was resuspended in F-12 medium (Invitrogen; 31331-D-MEM/F-12, GlutaMax^TM) supplemented with 10% fetal bovine serum (FBS^TM; Invitrogen), 200 U/mL penicillin and 200 U/mL streptomycin. The cell suspension (50 μL) was then plated on poly L-lysine (0.01%) coated glass coverslips (30 mm, Sarstedt, Nümbrecht, Germany), placed in cell culture dishes (35 mm) and kept in a humidified atmosphere (37°C, 95% humidity, 6% CO2) for 1 h. Subsequently, F-12 medium (2 mL) supplemented with FBS (10%), 200 U/mL penicillin and 200 U/mL streptomycin was added to each dish. The cells were kept in an incubator (37°C, 95% humidity, 6% CO2) until use.
# The recordings were performed using the whole-cell configuration of the patch-clamp technique. The cells were maintained in an extracellular recording solution containing 140 mM NaCl, 5 mM KCl, 2 mM MgCl2, 2 mM CaCl2, 10 mM HEPES and 10 mM glucose, pH 7.4. The Ca^2+ and Na^+- free extracellular solution contained: 140 mM NMDG-Cl, 5 mM KCl, 2 mM MgCl2, 5 mM EGTA, 10 mM HEPES, pH 7.4. The patch electrodes were pulled from borosilicate glass (1.2 mm OD × 1.17 mm ID; Harvard apparatus, Edenbridge, Kent, United Kingdom) and fire polished to 2.5–4 MΩ tip resistance using a horizontal pipette puller (Zeitz Instruments, Munich, Germany) to obtain a patch of approximately 1–2 μm diameter. The pipette solution contained 140 mM KCl, 1 mM MgCl2, and 10 mM HEPES, pH 7.4. All recordings were performed at room temperature with an EPC7 amplifier (List-Medical Electronic, Darmstadt, Germany). The capacity and serial resistance were adjusted manually. The substances were applied via a custom-made manifold superfusion device. […] The data were acquired using Pulse software (HEKA, Lambrecht, Germany) and analyzed with PulseFit (HEKA, Lambrecht, Germany). Unless otherwise stated, the data are expressed as the mean ± SEM. […]
smiles,measurement,setting,value
"O=C(/C=C/C=C/c1ccc2c(c1)OCO2)N1CCCCC1 [1a, piperine]",trigeminal neurons showing a calcium response,mouse trigeminal neurons; 100 μM,68 out of 619
same,piperine-responsive neurons still responsive in the presence of TRP antagonists,"mouse trigeminal neurons; 100 μM piperine with capsazepine 5 μM and HC-030031 20 μM, 25 of 37 neurons",68%
same,piperine-responsive neurons also capsaicin-responsive,"mouse trigeminal neurons; 100 μM piperine, 10 μM capsaicin, 35 of 68 neurons",51%
same,membrane potential change in current clamp,[1]; Na+/Ca2+-free conditions,mild depolarization
same,current inhibition when applied under acidic pH,"[1]; Na+/Ca2+-free solution, with XE-991, acidic pH, p = 0,00012",significantly decreased
same,decrease in the background current,"[1]; physiological extracellular solution, 13 of 38 neurons, <30 μm diameter",19.5 ± 1.8%
